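Following 48 hours of exposure in 96-well plates, responses at five concentrations were used to interpolate endpoints linearly. At the GI50, growth is halved. At the TGI there is no net growth.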

What all share (assay): NCI tumour cell line growth inhibition, 48 h
Test [1] relates to OVCAR-8 ovarian.
Test [2] has as its system SR leukemia.
The test system of test [3] is UACC-257 melanoma.
In test [4] the test system is NCI-H460 lung.
Test [5] deals with NCI-H226 lung.
The test system of test [6] is SF-539 CNS.
The subject of test [7] is U251 CNS.
In test [8] the test system is TK-10 renal.
Test [9] concerns HL-60(TB) leukemia.
Test [10] relates to HOP-92 NSCLC.

Consider `Cc1ccc(S(=O)(=O)OC(C=O)C(O)C(O)COC(c2ccccc2)(c2ccccc2)c2ccccc2)cc1` (stereo unspecified), for which the TGI is 26.5 µM in test [1]; 24.7 µM in [2]; 25.9 µM in test [3]; 26.9 µM in test [4]; 29.4 µM in test [5]; 30.8 µM in [6]. The TGI in test [7] is 27.9 µM.
On to `COc1ccccc1NS(=O)(=O)c1cc(C(C)(C)C)ccc1OCCOc1ccc(C(C)(C)C)cc1S(=O)(=O)Nc1ccccc1OC`, for which the TGI in [1], in test [8], in test [9], in test [3], in test [4] and in test [5] was > 100 µM throughout. Moreover, the TGI in [6], in [10] and in [7] was > 100 µM in each case.
As to `Cc1ccc(NC(=O)CCC(=O)C2CC(=O)CCC2=O)cc1C` (stereo unspecified), the TGI in test [1], in [8], in [9], in test [3], in [4] and in test [5] was > 100 µM each time. Further, the TGI in test [6], in test [10] and in [7] was > 100 µM each time.
As to `Nc1cc2c3c(cccc3c1)C(=O)N(CCN1CCN(CCN3C(=O)c4cccc5cc(N)cc(c45)C3=O)CC1)C2=O`, the TGI in test [1], in test [8], in test [9], in [3], in [4] and in [5] was > 100 µM each time. Besides, the TGI in [6], in test [10] and in [7] was > 100 µM throughout.
As to `O=C(Nc1ccc(Cl)cc1)C(=O)C1=C(O)c2ccccc2OC1`, the TGI in test [1], in test [8], in test [9], in test [3], in test [4] and in [5] was > 100 µM in each case. The TGI in [6], in test [10] and in test [7] was > 100 µM throughout.
Take `C/C=C(\C)C(=O)O[C@@H]1C=CC(=O)O[C@H]1COC(=O)[C@H](C)O`: the GI50 is 18.1 µM in [1]; 13 µM in test [8]; 4.41 µM in test [9]; 13.4 µM in [3]; 12.7 µM in [4]; 14.7 µM in [5]. Also, the GI50 in test [6] is 16.5 µM; in test [10] it was 7.83 µM; in test [7] it was 11.5 µM. Moreover, the TGI was > 100 µM in test [1]; 25.8 µM in test [8]; 21.3 µM in test [9]; 46.8 µM in [3]; 28.6 µM in [4]; 44.7 µM in test [5]. The results for the TGI in test [6], in [10] and in test [7] were 59.4 µM, 21.9 µM and 25 µM, respectively.
Regarding `Nc1ncn([C@@H]2C=C(CO)C(O)C2O)c(=O)n1` (stereo partly specified), the TGI in test [1], in [8], in test [9], in [3], in test [4] and in test [5] was > 100 µM in each case. Further, the TGI in test [6], in [10] and in test [7] was > 100 µM each time.
`O=C1c2cccnc2-c2nc(-c3ccccc3)cc3c2c1nc1ccccc13`: the GI50 was 3.06 µM in test [1]; 24.3 µM in test [8]; 1.12 µM in [9]; 0.835 µM in test [3]; 0.844 µM in test [4]; 9.39 µM in [5]. The GI50 in [6] was 17.8 µM; in test [10] it was 20.3 µM; in test [7], 4.09 µM. The TGI in [1] is > 63.1 µM; in [8], > 85.2 µM; in test [9], 3.01 µM; in [3], 8.08 µM; in [4], 3.74 µM; in test [5], 24.1 µM. For the same compound, the results for the TGI in test [6], in test [10] and in [7] were 43.3 µM, 80.4 µM and 19.6 µM, respectively.
On to `CC1=C(C(=O)Nc2cc(F)c(F)cc2F)C(c2cccc([N+](=O)[O-])c2)C(C(=O)Nc2ccccc2C(F)(F)F)=C(C)N1` (stereo unspecified), for which the TGI in test [1] is 77.7 µM; in test [8], 71.5 µM; in [9], 37.1 µM; in test [3], 59.3 µM; in test [4] it was 43.6 µM; in test [5], 74.7 µM. For the same compound, the TGI in test [6] was determined as 53.1 µM; in test [10], 32.3 µM; in test [7], 53.1 µM.
Take `CCOC(=O)C1=C(O)CSC1=Nc1ccc(N=C2SCC(O)=C2C(=O)OCC)cc1`: the TGI in test [1] is > 100 µM; in [8], 94.7 µM; in test [9], > 100 µM; in [3] it was 75.5 µM; in test [4], 92 µM; in [5] it was 44 µM. The results for the TGI in test [6], in test [10] and in [7] were 43 µM, 64 µM and 63 µM, respectively.

These data come from PubChem BioAssay (NCI).
